Reference: patent US20260137806A1, “INTERCALATING SUGAR MOLECULES” (Xalud Therapeutics, Inc., priority 2022, published 2026)
Where “and” joins values, the source holds several entries; their conditions need not be identical. Identical values can stand only once.

Columns and labels:
[1] = system: NR8383 rat alveolar macrophages; test: Cellular delivery: pDNA uptake (ddPCR); format: cell-based; conditions: LPS-activated NR8383; for pDNA copies per μL cell suspension: D-mannose plus pDNA
Description: The cell line used was NR8383 rat alveolar macrophages, which grow as a mixture of suspended and adherent cells. The culture medium was F-12K Medium+15% FBS. The cells were plated in a 24-well format at a seeding density of 4-6×10^5 cells/mL into the wells of a 24-well plate. All conditions were performed in duplicate. The testing conditions used NR8383 cells in both unactivated and activated states. […] Activated macrophages are characteristic of macrophages found in inflammatory disease states. […] Either 0, 1, or 2 μg pDNA was used per well, with or without mannose. The combination of pDNA minus D-mannose serves as pDNA control for all conditions. The combination of pDNA with uncomplexed Mannoquin 38 was completed by adding separate pDNA and Mannoquin 38 solutions to culture. Also, pDNA with complexed Mannoquin 38 were studied wherein pre-incubated pDNA and Mannoquin 38 solutions were added to the culture. Lipofectamine 2000 transfections per manufacturer's instructions was used as a positive control. Separate confirmation of successful transfection with Lipofectamine 2000 has been confirmed. The pDNA solution used was 40 μg/mL pDNA in PBS (herein after “Working pDNA solution”). […] For studies with no pDNA, 100 μL of 1×PBS was added to the appropriate culture wells. For plasmid-only conditions, to the appropriate culture wells, 100 μL of DNA solutions was added, wherein the solution was 50 μL of Working pDNA solution+150 μL of 1×PBS (1 μg pDNA) or 100 μL of Working pDNA solution+100 μL of 1×PBS (2 μg pDNA). For non-complexed test agent conditions, to the appropriate culture wells, 50 μL of each separately prepared solution was added: DNA solution (0, 25, or 50 μL Working pDNA solution+100, 75, or 50 μL 1×PBS, respectively) or test agent solution (25, 25, or 50 μL Test Agent Working solution+75, 75, or 50 μL 1×PBS, respectively). […] PCR reaction was performed and read according to the manufacturer's protocol.

DNA plasmid = test: Quinacrine-DNA binding saturation (absorbance titration); conditions: 4 mM or 8 mM phosphate/citrate buffer; FIG. 3
Description: FIG. 2 is a wavelength versus absorbance graph used to study quinacrine-DNA binding. Quinacrine concentrations were held constant under low ionic conditions (10 mM Na^+), and DNA plasmid was titrated. Absorbance was measured at 260 nm (DNA absorbance), 424 nm (quinacrine absorbance), 445 nm (quinacrine absorbance), and 461 nm (isobestic point).
FIG. 3 is a plasmid:quinacrine ratio versus absorbance graph used to study quinacrine-DNA binding saturation. The recovery of absorbance (marked with an arrow) indicates saturation. Saturation occurred at a plasmid/quinacrine ratio of 8 in 4 mM or 8 mM phosphate/citrate buffer.

[2] = Kinetic solubility measurements; conditions: aqueous buffer, kinetic from dmso stock

O=C[C@@H](O)[C@@H](O)[C@H](O)[C@H](O)CO [D-mannose]
pDNA copies per μL cell suspension ([1]; 1 μg pDNA): 68 copies per μL cell suspension
pDNA copies per μL cell suspension ([1]; 2 μg pDNA): 68.4 copies per μL cell suspension
dose-dependency of uptake based on pDNA level ([1]; agent plus pDNA, not complexed): no dose-dependency

CCN(CC)CCCC(C)Nc1c2ccc(Cl)cc2nc2ccc(OC)cc12 (centres unmarked) [quinacrine]
plasmid/quinacrine ratio at saturation (DNA plasmid): 8

C[C@]12CC[C@H]3[C@@H](CCC4=CC(=O)CC[C@@]43C)[C@@H]1CC[C@@H]2O [Testosterone]
solubility at 4 h [2]: 40 µM and 12 µg/mL
